{
  "source": "patent US11033527B2",
  "about": "“Non-hormonal treatment of the genitourinary syndrome of menopause” (IMMUGEN PHARMA LLC, priority 2018, dated 2021)",
  "key": {"vaginal tissue construct": {"test_system": "vaginal tissue construct", "assay": "microarray analysis of differential gene expression (Affymetrix Human Gene 1.0 ST arrays), tissues treated for seven days via culture medium", "format": "cell-based", "settings": "for VEGFA Fold Change: gene vascular endothelial growth factor A", "source_text": "The data from the Affymetrix Human Gene 1.0 ST arrays were normalized using the Robust Multiarray Average (RMA) algorithm and a Chip Definition File (CDF) that maps the probes on the array to unique Entrez Gene identifiers. The result is a matrix in which each column corresponds to a sample. The expression values are log 2-transformed by default.\nBy using a fold change >1.5, an analysis of differentially expressed genes was done to identify those genes which were involved in the cornified envelope, keratinocyte differentiation, cell differentiation, epidermis development, epithelial cell differentiation, junctional proteins and signaling, immune response and innate immune response."}, "EpiVaginal tissues": {"test_system": "EpiVaginal tissues", "assay": "macrophage infiltration in treated EpiVaginal tissues (barrier function), four hours in the presence of TNF-α", "format": "cell-based", "settings": "vs. 28% into the untreated tissue; macrophages cultured with the tissue for four hours in the presence of TNF-α", "source_text": "FIG. 1 is a graph showing macrophage infiltration in hormone (estrogen) and L759,633-treated EpiVaginal tissues. L759,633 had the most striking effect on macrophage infiltration: only 6% of cells infiltrated into the tissue past 90 μm (vs. 28% into the untreated tissue, p<0.006 ANOVA). […] U=untreated control; E=estradiol; P=progesterone; and IMG=the cannabinoid L759,633.\nMany of the above-noted genes are differentially regulated by estradiol in menopausal tissue. […] With respect to the barrier function, only 6% of macrophages which had been cultured with the tissue for four hours in the presence of TNF-α were capable of infiltrating into the tissue past 90 um (vs. 28% into the untreated tissue, p<0.006 ANOVA). […] This would indicate that the increased gene expression of the proteins involved with cross-linking of the keratin fibers, filagrins and desmosomal cadherins are all contributing to the fortification of the vaginal mucosa which would prevent the infiltration of pathogens and prevent the loss of solutes and water from within the tissue."}},
  "data": [
    {"smiles": "C[C@]12CC[C@@H]3c4ccc(O)cc4CC[C@H]3[C@@H]1CC[C@@H]2O", "note": "[Estradiol, 17β-estradiol, reference compound]", "values": [
      {"measurement": "SPRR2D Fold Change", "setting": "vaginal tissue construct", "value": 2.793, "unit": "fold"},
      {"measurement": "WFDC12 Fold Change", "setting": "vaginal tissue construct", "value": 3.103, "unit": "fold"},
      {"measurement": "CD74 Expr Fold Change", "setting": "vaginal tissue construct; gene CD74 molecule", "value": "−1.89", "unit": "fold"},
      {"measurement": "CD244 Expr Fold Change", "setting": "vaginal tissue construct; gene CD244 molecule", "value": 2.355, "unit": "fold"},
      {"measurement": "CDSN Fold Change", "setting": "vaginal tissue construct; gene Corneodesmosin", "value": 3.011, "unit": "fold"},
      {"measurement": "CCL28 Expr Fold Change", "setting": "vaginal tissue construct; gene C−C motif chemokine ligand 28", "value": "−1.948", "unit": "fold"},
      {"measurement": "FYB1 Expr Fold Change", "setting": "vaginal tissue construct; gene FYN binding protein 1", "value": "−2.225", "unit": "fold"},
      {"measurement": "IFNE Fold Change", "setting": "vaginal tissue construct; gene Interferon Epsilon", "value": 2.1, "unit": "fold"},
      {"measurement": "NLRP10 Fold Change", "setting": "vaginal tissue construct; gene NLR family pyrin domain containing 10", "value": 4.199, "unit": "fold"},
      {"measurement": "RNAse7 Fold Change", "setting": "vaginal tissue construct; gene RNAse family", "value": 3.387, "unit": "fold"},
      {"measurement": "TNFRSF10C Expr Fold Change", "setting": "vaginal tissue construct; gene TNF receptor superfamily member 10c", "value": "−2.162", "unit": "fold"},
      {"measurement": "TGM1 Fold Change", "setting": "vaginal tissue construct; gene Transglutaminase 1", "value": 1.406, "unit": "fold"},
      {"measurement": "TGM3 Fold Change", "setting": "vaginal tissue construct; gene Transglutaminase 3", "value": 15.681, "unit": "fold"},
      {"measurement": "TGM5 Fold Change", "setting": "vaginal tissue construct; gene Transglutaminase 5", "value": 1.135, "unit": "fold"},
      {"measurement": "VTCN1 Expr Fold Change", "setting": "vaginal tissue construct; gene V-set domain containing T cell activation inhibitor 1", "value": "−2.364", "unit": "fold"},
      {"measurement": "WFDC5 Fold Change", "setting": "vaginal tissue construct; gene WAP four-disulfide core domain 5", "value": 1.2, "unit": "fold"},
      {"measurement": "ALOX12B Fold Change", "setting": "vaginal tissue construct; gene arachidonate 12-lipoxygenase, 12R type", "value": 2.207, "unit": "fold"},
      {"measurement": "ALOXE3 Fold Change", "setting": "vaginal tissue construct; gene arachidonate lipoxygenase 3", "value": 1.371, "unit": "fold"},
      {"measurement": "CSF2RB Expr Fold Change", "setting": "vaginal tissue construct; gene colony stimulating factor 2 receptor beta common subunit", "value": 1.517, "unit": "fold"},
      {"measurement": "CNFN Fold Change", "setting": "vaginal tissue construct; gene cornifelin", "value": 1.3, "unit": "fold"},
      {"measurement": "DMKN Fold Change", "setting": "vaginal tissue construct; gene dermokine", "value": 2.428, "unit": "fold"},
      {"measurement": "DCS3 Fold Change", "setting": "vaginal tissue construct; gene descmocollin 3", "value": 1.2, "unit": "fold"},
      {"measurement": "DSC1 Fold Change", "setting": "vaginal tissue construct; gene desmocollin 1", "value": 1.673, "unit": "fold"},
      {"measurement": "DSC2 Fold Change", "setting": "vaginal tissue construct; gene desmocollin 2", "value": 1.3, "unit": "fold"},
      {"measurement": "DSG1 Fold Change", "setting": "vaginal tissue construct; gene desmoglein 1", "value": 4.964, "unit": "fold"},
      {"measurement": "FLG Fold Change", "setting": "vaginal tissue construct; gene filaggrin", "value": 3.212, "unit": "fold"},
      {"measurement": "FLG2 Fold Change", "setting": "vaginal tissue construct; gene filaggrin family member 2", "value": 2.766, "unit": "fold"},
      {"measurement": "KPRP Fold Change", "setting": "vaginal tissue construct; gene human keratinocyte proline rich protein", "value": 5.557, "unit": "fold"},
      {"measurement": "IL23A Expr Fold Change", "setting": "vaginal tissue construct; gene interleukin 23 subunit alpha", "value": 2.912, "unit": "fold"},
      {"measurement": "IL36A Expr Fold Change", "setting": "vaginal tissue construct; gene interleukin 36 alpha", "value": 3.409, "unit": "fold"},
      {"measurement": "IL36RN Expr Fold Change", "setting": "vaginal tissue construct; gene interleukin 36 receptor antagonist", "value": 2.751, "unit": "fold"},
      {"measurement": "KLK6 Fold Change", "setting": "vaginal tissue construct; gene kallikrein related peptidase 6", "value": 2.769, "unit": "fold"},
      {"measurement": "KLK8 Fold Change", "setting": "vaginal tissue construct; gene kallikrein related peptidase 8", "value": 1.831, "unit": "fold"},
      {"measurement": "KLK10 Fold Change", "setting": "vaginal tissue construct; gene kallikrein related peptidase 10", "value": 2.043, "unit": "fold"},
      {"measurement": "KLK12 Fold Change", "setting": "vaginal tissue construct; gene kallikrein related peptidase 12", "value": 4.018, "unit": "fold"},
      {"measurement": "KLK13 Fold Change", "setting": "vaginal tissue construct; gene kallikrein related peptidase 13", "value": 4.626, "unit": "fold"},
      {"measurement": "KRT1 Fold Change", "setting": "vaginal tissue construct; gene keratin 1", "value": 1.949, "unit": "fold"},
      {"measurement": "KRT2 Fold Change", "setting": "vaginal tissue construct; gene keratin 2", "value": 1.214, "unit": "fold"},
      {"measurement": "KRT20 Fold Change", "setting": "vaginal tissue construct; gene keratin 20", "value": "−3.702", "unit": "fold"},
      {"measurement": "KRT23 Fold Change", "setting": "vaginal tissue construct; gene keratin 23", "value": 1.891, "unit": "fold"},
      {"measurement": "KRT24 Fold Change", "setting": "vaginal tissue construct; gene keratin 24", "value": 1.673, "unit": "fold"},
      {"measurement": "KRTDAP Fold Change", "setting": "vaginal tissue construct; gene keratinocyte differentiation associated protein", "value": 13.936, "unit": "fold"},
      {"measurement": "LCE1A Fold Change", "setting": "vaginal tissue construct; gene late cornified envelope 1A", "value": 1.307, "unit": "fold"},
      {"measurement": "LCE1C Fold Change", "setting": "vaginal tissue construct; gene late cornified envelope 1C", "value": 1.262, "unit": "fold"},
      {"measurement": "LCE1F Fold Change", "setting": "vaginal tissue construct; gene late cornified envelope 1F", "value": 1.317, "unit": "fold"},
      {"measurement": "LCE2A Fold Change", "setting": "vaginal tissue construct; gene late cornified envelope 2A", "value": 2.026, "unit": "fold"},
      {"measurement": "LCE2B Fold Change", "setting": "vaginal tissue construct; gene late cornified envelope 2B", "value": 1.89, "unit": "fold"},
      {"measurement": "LCE2C/LCE2D Fold Change", "setting": "vaginal tissue construct; gene late cornified envelope 2D", "value": 1.903, "unit": "fold"},
      {"measurement": "LCE5A Fold Change", "setting": "vaginal tissue construct; gene late cornified envelope 5A", "value": 1.454, "unit": "fold"},
      {"measurement": "LIPM Fold Change", "setting": "vaginal tissue construct; gene lipase family member M", "value": 3.572, "unit": "fold"},
      {"measurement": "LIPN Fold Change", "setting": "vaginal tissue construct; gene lipase family member N", "value": 4.57, "unit": "fold"},
      {"measurement": "LIPN1 Fold Change", "setting": "vaginal tissue construct; gene lipin 1", "value": 2.831, "unit": "fold"},
      {"measurement": "LOR Fold Change", "setting": "vaginal tissue construct; gene loricrin", "value": 1.207, "unit": "fold"},
      {"measurement": "HLA-DPA1 Expr Fold Change", "setting": "vaginal tissue construct; gene major histocompatibility complex, class II, DP alpha 1", "value": "−1.8", "unit": "fold"},
      {"measurement": "HLA-DRA Expr Fold Change", "setting": "vaginal tissue construct; gene major histocompatibility complex, class II, DR alpha", "value": "−2.234", "unit": "fold"},
      {"measurement": "HLA-DRB6 Expr Fold Change", "setting": "vaginal tissue construct; gene major histocompatibility complex, class II, DR beta 6 (pseudogene)", "value": "−2.5", "unit": "fold"},
      {"measurement": "MUCL1 Fold Change", "setting": "vaginal tissue construct; gene mucin like 1", "value": 2.857, "unit": "fold"},
      {"measurement": "PLA2G2F Fold Change", "setting": "vaginal tissue construct; gene phospholipase A2 group IIF", "value": 1.824, "unit": "fold"},
      {"measurement": "PLA2G3 Fold Change", "setting": "vaginal tissue construct; gene phospholipase A2 group III", "value": 1.64, "unit": "fold"},
      {"measurement": "PLA2G4D Fold Change", "setting": "vaginal tissue construct; gene phospholipase A2 group IVD", "value": 2.046, "unit": "fold"},
      {"measurement": "PLA2G4E Fold Change", "setting": "vaginal tissue construct; gene phospholipase A2 group IVE", "value": 2.442, "unit": "fold"},
      {"measurement": "PLA2G10 Fold Change", "setting": "vaginal tissue construct; gene phospholipase A2 group X", "value": "−2.948", "unit": "fold"},
      {"measurement": "SERPINB12 Fold Change", "setting": "vaginal tissue construct; gene serpin family B member 12", "value": 1.3, "unit": "fold"},
      {"measurement": "SPRR2G Fold Change", "setting": "vaginal tissue construct; gene small proline rich protein 2G", "value": 4.664, "unit": "fold"},
      {"measurement": "SPRR4 Fold Change", "setting": "vaginal tissue construct; gene small proline rich protein 4", "value": 2.669, "unit": "fold"},
      {"measurement": "SLC44A4 Fold Change", "setting": "vaginal tissue construct; gene solute carrier family 44 member 4", "value": "−1.8", "unit": "fold"},
      {"measurement": "SBSN Fold Change", "setting": "vaginal tissue construct; gene suprabasin", "value": 3.449, "unit": "fold"},
      {"measurement": "TLR3 Expr Fold Change", "setting": "vaginal tissue construct; gene toll like receptor 3", "value": "−2.081", "unit": "fold"},
      {"measurement": "TRPV3 Fold Change", "setting": "vaginal tissue construct; gene transient receptor potential cation channel subfamily V member 3", "value": 1.6, "unit": "fold"},
      {"measurement": "VEGFA Fold Change", "setting": "vaginal tissue construct", "value": 1.2, "unit": "fold"},
      {"measurement": "VEGFA Fold Change", "setting": "vaginal tissue construct; listed as estradiol", "value": 2.2, "unit": "fold"},
      {"measurement": "HLA-DMA expression", "setting": "vaginal tissue construct; result in words", "value": "down-regulate"},
      {"measurement": "HLA-DMB expression", "setting": "vaginal tissue construct; result in words", "value": "down-regulate"},
      {"measurement": "macrophages infiltrated into the tissue past 90 μm", "setting": "EpiVaginal tissues", "value": 16, "unit": "%"}
    ]}
  ]
}
